From US9156855B2, “Regulation of nitric oxide release and biofilm development” (Newsouth Innovation Pty Limited, priority 2011, dated 2015)
Converted amounts (≈) assume the structure as drawn. Counter-ions that a name gives are not always drawn. Like-named read-outs stand apart in the source and are kept apart here.

Key:
[1] = tested on: extracellular β-lactamases of P. aeruginosa; assay type: biochemical; details: P. aeruginosa culture treated 1 h; imipenem 0.5 μg/ml or ampicillin 100 μg/ml
Description: (c) Nitric oxide release in the presence of supernatants of P. aeruginosa cultures grown for 5 h in the absence of antibiotic then treated for 1 h with extracellular β-lactamase-inducing imipenem a 0.5 μg/ml (thick line) or ampicillin at 100 μg/ml (dotted line). Arrows indicate addition of the following to a reaction vial containing 10 mL Tris buffer at pH 7.0: (i) 10 μL of 150 mM Compound 15, (ii) 500 μL supernatant, (iii) 500 μL supernatant, (iv) PTIO.

[2] = tested on: Established P. aeruginosa biofilms; assay: Anti-biofilm efficacy of tobramycin or ciprofloxacin with compound 21 (Table 1); assay type: cell-based; details: tobramycin 80 μg/mL or ciprofloxacin 5 μg/mL, 1 h, mean ± SEM
Description: Values represent the log-fold reductions in cfu compared to control biofilms and are the mean of two independent experiments (±SEM).

[3] = tested on: P. aeruginosa PAO1 wild type cells; assay: Planktonic growth inhibition, minimum inhibitory concentration; assay type: cell-based; details: M9 minimal medium, 20 h growth, OD600nm of 35% or less
[4] = tested on: P. aeruginosa NSGFP reporter strain (nirS-GFP); assay type: cell-based; details: control treatments alone
Description: To study nitric oxide release in intact cells of P. aeruginosa, the P. aeruginosa NSGFP reporter strain was used (Barraud et al., 2009). This strain harbours a gene reporter construct that expresses green fluorescent protein (GFP) when the nitric oxide-inducible nirS gene is expressed. P. aeruginosa NSGFP cells were grown with or without ampicillin at subinhibitory concentration (50 μg/ml) to induce β-lactamase activity.

[5] = tested on: P. aeruginosa PAO1 wild type biofilms; assay: Biofilm dispersal assay, 24-well batch culture, PAO1; assay type: cell-based; details: 10 min exposure, alone
Description: P. aeruginosa PAO1 wild type ATCC and MA67 strains, P. aeruginosa FRD1, a mucoid, cystic fibrosis (CF) isolate (Oilman and Chakrabarty, 1981), and the clinical strain P. aeruginosa 18A, which was isolated from CF sputum samples of chronically infected individual in Tasmania (Kirov et al, 2007) were used for biofilm dispersal assays. Biofilms were grown in M9 minimal medium (containing 48 mM Na2HPO4, 22 mM KH2PO4, 9 mM NaCl, 19 mM NH4Cl, pH 7.2, 2 mM MgSO4, 20 mM glucose, and 100 μM CaCl2) in 24-well plates batch cultures at 37° C. with shaking at 200 rpm. After 6 h incubation for PAO1 wild-type biofilms or 24 h incubation for FRD1 and 18A biofilms, treatments were added to each well in less than 1 min per plate and the plates were incubated for a further 10 min at 37° C. with shaking at 200 rpm. Planktonic biomass was quantified by direct measurement of OD600 of the supernatant, and the remaining biofilm biomass was quantified by crystal violet staining (O'Toole and Kolter, 1998).

[6] = tested on: β-lactamase (penicillinase, Sigma Aldrich); assay: Amperometric nitric oxide release on exposure to penicillinase; assay type: biochemical; details: non-NO-releasing cephalosporin alone, in the presence or absence of penicillinase
Description: Arrows indicate addition of the following to a reaction vial containing 10 mL Tris buffer at pH 7.0: (a) 10 μL of 100 mM cephalosporin-3′-diazeniumdiolate, (b) 10 μl 1 U/μl penicillinase, (c) 20 μl 1 U/μl penicillinase, (d) 80 μL of 10 mM free radical scavenger PTIO.
Amperometric characterization of nitric oxide release from Compound 15. (a) Nitric oxide release in the presence of penicillinase at varying pH. Arrows indicate addition of the following to a reaction vial containing 10 mL Tris buffer at pH 9.0 (thick line), 7.0 (dashed line) or 5.0 (dotted line): (i) 10 μL of 150 mM Compound 15, (ii) 5 μL of 0.1 U/μL penicillinase, (iii) 10 μL of 0.1 U/μL penicillinase, (iv) 80 μL of 10 mM free radical scavenger PTIO. (b) Nitric oxide release in the presence of β-lactamase-expressing P. aeruginosa (thick line) or non-β-lactamase-expressing E. coli (dotted line) cell extracts. Arrows indicate addition of the following to a reaction vial containing 10 mL Tris buffer at pH 7.0: (i) 10 μL of 150 mM Compound 15, (ii) 100 μL cell extract, (iii) 200 μL cell extract, (iv) PTIO. […] The data is representative of at least three independent experiments. […]

**Q.** For `CCN(CC)/[N+]([O-])=N/OCC1=C(C(=O)O)N2C(=O)C(NC(=O)Cc3ccccc3)C2SC1` (stereo not drawn) [Compound 15], which melting point is on record?
**A.** 84 to 86 °C

**Q.** With `CC1(C)S[C@@H]2[C@H](NC(=O)[C@H](N)c3ccccc3)C(=O)N2[C@H]1C(=O)O` [ampicillin] as the compound, how does the “induction of extracellular β-lactamase expression” value [1] read?
**A.** failure of ampicillin to induce expression

**Q.** For `NC[C@H]1O[C@H](O[C@H]2[C@H](O)[C@@H](O[C@H]3O[C@H](CO)[C@@H](O)[C@H](N)[C@H]3O)[C@H](N)C[C@@H]2N)[C@H](N)C[C@@H]1O` [Tobramycin], which “Log Reduction in Biofilm cfu” value ([2]; Compound 21 0 μM (antibiotic alone)) is on record?
**A.** 2.15 ± 0.16

**Q.** And the “Log Reduction in Biofilm cfu” value ([2]; with Compound 21 10 μM)?
**A.** 3.92 ± 0.06

**Q.** What about the “Log Reduction in Biofilm cfu” value ([2]; with Compound 21 100 μM) of the same compound?
**A.** 3.58 ± 0.15

**Q.** For `CCN(CC)[N+]([O-])=N[O-].[Na+]` [DEA, O^2-sodium 1-(N,N-diethylamino)diazen-1-ium-1,2-diolate], which MIC [3] is on record?
**A.** 16 mM

**Q.** Which melting point does the source give for `CCN(CC)/[N+]([O-])=N/OCC1=C(C(=O)O)N2C(=O)C(NC(=O)Cc3ccccc3)C2SC1` (stereo not drawn) (as salt: potassium) [Compound 21] here?
**A.** 35 to 37 °C

**Q.** What does the source list for `CC(=O)OCC1=C(C(=O)O)N2C(=O)[C@@H](NC(=O)Cc3cccs3)[C@H]2SC1` [cephalothin]?
**A.** GFP fluorescence [4]: no effect on GFP fluorescence; biofilm dispersal [5]: did not induce significant dispersal events; nitric oxide release [6]: no release of nitric oxide was observed; nitric oxide release ([6]; listed as cefalotin): undetectable; MIC ([3]; Pseudomonas aeruginosa, PAO1, read-out: MIC): 16 mM (≈ 6340 µg/mL)
